The source of these data is ChEMBL document CHEMBL1201862, “PubChem BioAssay data set” (2004).

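A five-concentration, 48-hour dose response in 96-well plates underlies each endpoint, interpolated linearly between surrounding concentrations. GI50 = concentration required for 50% inhibition of growth.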 Activity calls are given as the source filed them. Cut-off read from the data, not from the text of the source: active = GI50 up to about 1.1 µM and inactive = higher.

Some test systems named below: COLO 205; SR; OVCAR-8; SK-MEL-28; MOLT-4; IGROV-1; SK-MEL-5; ACHN; SN12C; A498; KM12; NCI-H522; CAKI-1; HOP-92; SF-295; HT-29; T47D; PC-3.
Holding throughout (experiment): growth of human tumour cells (NCI), 48 h

For `C=C=C[P+](c1ccccc1)(c1ccccc1)c1ccccc1`, the GI50 in the assay on COLO 205 is 2.57 µM (inactive); in the assay with SR, 21.3 µM (inactive); in the assay with OVCAR-8, 3.13 µM (inactive); in the assay on SK-MEL-28, 21.4 µM (inactive); with MOLT-4 it was 2.6 µM (inactive); with IGROV-1, 31.5 µM (inactive). The GI50 in the assay with SK-MEL-5 is 5.86 µM (inactive); in the assay with ACHN it was 14.5 µM (inactive); with SN12C, 3.78 µM (inactive); in the assay on A498, 93.8 µM (inactive); in the assay with KM12, 13 µM (inactive); with NCI-H522, 2.24 µM (inactive).
Regarding `CN(C)[C@@H]1C(O)=C(C(N)=O)C(=O)[C@@]2(O)C(O)=C3C(=O)c4c(O)cccc4C[C@H]3C[C@@H]12`, the GI50 was 1.77 µM (inactive) with COLO 205; 1.98 µM (inactive) in the assay with CAKI-1; 2.56 µM (inactive) in the assay on SR; 2.89 µM (inactive) with OVCAR-8; 1.77 µM (inactive) with SK-MEL-28; 2.45 µM (inactive) with MOLT-4. Besides, the GI50 in the assay on IGROV-1 was 2.1 µM (inactive); with HOP-92, 2.26 µM (inactive); in the assay on SK-MEL-5, 1.75 µM (inactive); in the assay on ACHN it was 3.74 µM (inactive); with SN12C, 3.44 µM (inactive); with SF-295 it was 1.7 µM (inactive). Also, the GI50 was 2.2 µM (inactive) in the assay on A498, 1.87 µM (inactive) with HT-29, 2.13 µM (inactive) in the assay on KM12 and 2.13 µM (inactive) with NCI-H522.
For the compound `Cc1nc2ccncc2[nH]1`, the GI50 in the assay on COLO 205, in the assay on CAKI-1, in the assay on SR, in the assay with OVCAR-8, in the assay on SK-MEL-28 and in the assay on MOLT-4 was > 100 µM (inactive) in each case. Besides, the GI50 in the assay on IGROV-1, with SK-MEL-5, in the assay with ACHN, with SN12C, with SF-295 and in the assay on A498 was > 100 µM (inactive) throughout. For the same compound, the GI50 in the assay on HT-29 was > 100 µM (inactive).
Consider `O=C1OC(CC(=O)c2ccc(Cl)cc2)C(Cl)=C1Cl` (stereo not drawn), for which the GI50 with COLO 205 was > 100 µM (inactive); in the assay with CAKI-1 it was > 100 µM (inactive); in the assay with SR it was 48.3 µM (inactive); in the assay on OVCAR-8 it was > 100 µM (inactive); in the assay on SK-MEL-28 it was > 100 µM (inactive); in the assay on MOLT-4, 39.2 µM (inactive). For the same compound, the GI50 in the assay with IGROV-1, in the assay on HOP-92, in the assay on SK-MEL-5, with ACHN, in the assay with SN12C and in the assay with SF-295 was > 100 µM (inactive) in each case. Moreover, the GI50 in the assay on A498 is > 100 µM (inactive); in the assay with HT-29 it was > 100 µM (inactive); in the assay with KM12 it was > 100 µM (inactive); with NCI-H522, 94.8 µM (inactive).
With `COCP1(=S)OC(C)CCN1C(C)C` (stereo not drawn), the GI50 in the assay on COLO 205, with T47D, in the assay on CAKI-1, in the assay on SR, with OVCAR-8 and with IGROV-1 was > 100 µM (inactive) throughout. The GI50 with SK-MEL-5, in the assay on PC-3, in the assay on ACHN, in the assay on SF-295, in the assay on HT-29 and in the assay with KM12 was > 100 µM (inactive) in each case.
With `CSc1nc2c(nc(C)c(=O)n2C2OCC(OC(C)=O)C(OC(C)=O)C2OC(C)=O)c(=O)[nH]1` (stereo not drawn), the GI50 in the assay with COLO 205 is > 100 µM (inactive); in the assay on CAKI-1, 88.5 µM (inactive); in the assay with SR, > 100 µM (inactive); in the assay with OVCAR-8, > 100 µM (inactive); in the assay with SK-MEL-28, > 100 µM (inactive); in the assay on MOLT-4, > 100 µM (inactive). Also, the GI50 was > 100 µM (inactive) in the assay on IGROV-1; 3.76 µM (inactive) with HOP-92; > 100 µM (inactive) with SK-MEL-5; > 100 µM (inactive) in the assay with ACHN; > 100 µM (inactive) in the assay on SN12C; > 100 µM (inactive) with SF-295. For the same compound, the GI50 with A498, in the assay with HT-29, in the assay on KM12 and with NCI-H522 was > 100 µM (inactive) in each case.
On to `CCN(CC)c1ccc2cc3ccc(N(CC)CC)cc3[o+]c2c1`, for which the GI50 with COLO 205 was 0.798 µM (active); in the assay with CAKI-1, 4.06 µM (inactive); with SR, 0.267 µM (active); with OVCAR-8, 0.407 µM (active); with SK-MEL-28, 2.56 µM (inactive); with MOLT-4 it was 0.127 µM (active). Besides, the GI50 is 2.08 µM (inactive) in the assay with IGROV-1; 0.693 µM (active) in the assay on HOP-92; 2.34 µM (inactive) in the assay with SK-MEL-5; 1.26 µM (inactive) with ACHN; 0.832 µM (active) in the assay with SN12C; 4.48 µM (inactive) in the assay with SF-295. The GI50 in the assay on A498 is 14.6 µM (inactive); with HT-29 it was 0.474 µM (active); in the assay with KM12, 0.51 µM (active); in the assay with NCI-H522, 1.69 µM (inactive).
For the compound `Cc1nc(C(N)=S)sc1C(=O)CC(=O)C(=O)Nc1ccccc1[N+](=O)[O-]`, the GI50 with CAKI-1, in the assay on SR, in the assay with OVCAR-8, in the assay with SK-MEL-28, in the assay on MOLT-4 and in the assay with IGROV-1 was > 100 µM (inactive) throughout. The GI50 in the assay on HOP-92, in the assay with SK-MEL-5, in the assay on ACHN, with SF-295, with A498 and in the assay on HT-29 was > 100 µM (inactive) throughout. In addition, the GI50 in the assay with KM12 and with NCI-H522 was > 100 µM (inactive) throughout.
As to `COc1ccc(C2=NN(c3ccccc3)C[N+](c3ccc(OC)cc3)=N2)cc1`, the GI50 with COLO 205 was > 10 µM (inactive); in the assay with SR, 34 µM (inactive); with OVCAR-8, 85.7 µM (inactive); with SK-MEL-28 it was 26.9 µM (inactive); in the assay with MOLT-4, 20.3 µM (inactive); with IGROV-1 it was 21.3 µM (inactive). Moreover, the GI50 in the assay on SK-MEL-5 is 14.7 µM (inactive); in the assay with ACHN, 30.3 µM (inactive); with SN12C it was 54.1 µM (inactive); with SF-295, 59.4 µM (inactive); with A498, > 100 µM (inactive); in the assay on HT-29, 57.3 µM (inactive). Also, the results for the GI50 in the assay on KM12 and in the assay on NCI-H522 were 21.3 µM (inactive) and 15.1 µM (inactive), respectively.
For `COc1ccc(/C(=N/NC(N)=O)C2(O)C(=O)Nc3ccc([N+](=O)[O-])cc32)cc1` (stereo not drawn), the GI50 in the assay with COLO 205 was 23 µM (inactive); in the assay on CAKI-1, 24.2 µM (inactive); in the assay on SR, 17.4 µM (inactive); in the assay on OVCAR-8, 22.3 µM (inactive); with SK-MEL-28 it was 20 µM (inactive); in the assay with MOLT-4 it was 19.6 µM (inactive). Further, the GI50 is 31 µM (inactive) with IGROV-1; 22.4 µM (inactive) in the assay on HOP-92; 27.3 µM (inactive) with SK-MEL-5; 16.6 µM (inactive) in the assay with ACHN; > 10 µM (inactive) with SN12C; 29.2 µM (inactive) with A498. In addition, the GI50 in the assay on HT-29 is 19.4 µM (inactive); in the assay on KM12, 22.6 µM (inactive); in the assay on NCI-H522, 21.8 µM (inactive).
On to `Cc1c(C(=O)CC(=O)C(=O)Nc2ccccc2C(F)(F)F)[n+]([O-])c2ccccc2[n+]1[O-]`, for which the GI50 with COLO 205 is 12.3 µM (inactive); with CAKI-1, 26.7 µM (inactive); in the assay with SR, 2.09 µM (inactive); with OVCAR-8, 18.2 µM (inactive); in the assay on SK-MEL-28, 27.4 µM (inactive); with IGROV-1 it was 18 µM (inactive). Also, the GI50 in the assay with HOP-92 was 16.2 µM (inactive); in the assay on SK-MEL-5, 16.3 µM (inactive); in the assay with ACHN, 62.2 µM (inactive); with SN12C, 22.2 µM (inactive); with SF-295 it was 31.6 µM (inactive); in the assay with A498 it was > 100 µM (inactive). The GI50 was 18.5 µM (inactive) with HT-29, 19.5 µM (inactive) with KM12 and 16.4 µM (inactive) in the assay with NCI-H522.
In the case of `CCOC(=O)Cn1c(=O)n(C)c(=O)c2[nH]cnc21`, the GI50 with COLO 205, in the assay on CAKI-1, in the assay on SR, in the assay with OVCAR-8, in the assay on SK-MEL-28 and in the assay with MOLT-4 was > 100 µM (inactive) each time. Also, the GI50 in the assay with IGROV-1, with HOP-92, in the assay with SK-MEL-5, with ACHN, with SN12C and with A498 was > 100 µM (inactive) each time. Further, the GI50 in the assay with HT-29, in the assay with KM12 and in the assay with NCI-H522 was > 100 µM (inactive) in each case.
For the compound `CN1N=C2c3ccccc3CC[C@H]2C1c1ccccc1` (stereo partly drawn), the GI50 with COLO 205 was 35.7 µM (inactive); in the assay on SR, > 100 µM (inactive); in the assay on OVCAR-8, 41.1 µM (inactive); in the assay on SK-MEL-28 it was > 100 µM (inactive); in the assay on MOLT-4, > 100 µM (inactive); in the assay on IGROV-1, 85.5 µM (inactive). Further, the GI50 in the assay on HOP-92 was 5.25 µM (inactive); with ACHN, 44.3 µM (inactive); with SN12C, 42.1 µM (inactive); in the assay on SF-295 it was 35.3 µM (inactive); in the assay with A498, 72.1 µM (inactive); in the assay with HT-29, 22.9 µM (inactive). The GI50 with KM12 is 36.9 µM (inactive); with NCI-H522 it was 17.6 µM (inactive).
